How the values were obtained:
α4β1 integrin = target: T1, α4β1 integrin (Homo sapiens, UniProt P05556+P13612); assay: Adhesion of calcein-labeled Ramos cells to CS1 (fibronectin) peptide conjugated ovalbumin; type: cell-based; settings: Ramos cell adhesion to CS1 conjugated ovalbumin
T1 construct: endogenous in cells; host or cells: Ramos cells
Method in brief: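 Plates bearing CS1 fibronectin peptide coupled to ovalbumin (0.5 μg/ml coat, 3% BSA block) received calcein-labelled Ramos cells plus compound (100 μM stated) for 30 min at 37 °C. Buffer was TBS pH 7.5 with 1 mM Mg2+, Ca2+, Mn2+; bound cells quantified by fluorescence after lysis; […].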

[1] = Table 5, dose required to give 50% inhibition

T1 sequence (P13612 34-1032): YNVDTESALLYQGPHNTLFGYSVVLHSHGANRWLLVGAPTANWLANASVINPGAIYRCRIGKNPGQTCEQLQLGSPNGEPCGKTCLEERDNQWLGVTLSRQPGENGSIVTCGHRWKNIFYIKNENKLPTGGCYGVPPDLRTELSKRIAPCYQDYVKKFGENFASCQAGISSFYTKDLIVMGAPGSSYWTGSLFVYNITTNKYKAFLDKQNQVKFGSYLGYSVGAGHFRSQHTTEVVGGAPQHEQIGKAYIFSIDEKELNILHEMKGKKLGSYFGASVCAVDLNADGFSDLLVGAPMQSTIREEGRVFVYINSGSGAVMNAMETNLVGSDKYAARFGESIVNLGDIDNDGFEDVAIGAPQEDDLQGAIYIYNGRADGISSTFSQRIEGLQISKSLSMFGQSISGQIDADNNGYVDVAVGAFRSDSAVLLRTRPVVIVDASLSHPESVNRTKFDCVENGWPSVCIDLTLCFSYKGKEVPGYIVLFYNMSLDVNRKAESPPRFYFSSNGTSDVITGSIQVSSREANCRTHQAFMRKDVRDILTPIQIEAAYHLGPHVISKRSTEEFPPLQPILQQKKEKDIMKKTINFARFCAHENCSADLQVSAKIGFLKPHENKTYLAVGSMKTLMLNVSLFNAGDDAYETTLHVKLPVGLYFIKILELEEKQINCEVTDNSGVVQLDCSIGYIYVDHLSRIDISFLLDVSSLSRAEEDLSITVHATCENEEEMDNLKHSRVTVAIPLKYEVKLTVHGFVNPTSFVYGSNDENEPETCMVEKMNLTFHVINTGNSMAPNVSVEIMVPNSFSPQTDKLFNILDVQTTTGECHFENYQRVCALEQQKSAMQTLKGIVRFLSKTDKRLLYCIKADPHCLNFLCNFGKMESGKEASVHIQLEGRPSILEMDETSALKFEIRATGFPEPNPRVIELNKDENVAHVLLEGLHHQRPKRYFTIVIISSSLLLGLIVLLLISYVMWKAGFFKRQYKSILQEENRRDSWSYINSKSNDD
T1 sequence (P05556 21-798): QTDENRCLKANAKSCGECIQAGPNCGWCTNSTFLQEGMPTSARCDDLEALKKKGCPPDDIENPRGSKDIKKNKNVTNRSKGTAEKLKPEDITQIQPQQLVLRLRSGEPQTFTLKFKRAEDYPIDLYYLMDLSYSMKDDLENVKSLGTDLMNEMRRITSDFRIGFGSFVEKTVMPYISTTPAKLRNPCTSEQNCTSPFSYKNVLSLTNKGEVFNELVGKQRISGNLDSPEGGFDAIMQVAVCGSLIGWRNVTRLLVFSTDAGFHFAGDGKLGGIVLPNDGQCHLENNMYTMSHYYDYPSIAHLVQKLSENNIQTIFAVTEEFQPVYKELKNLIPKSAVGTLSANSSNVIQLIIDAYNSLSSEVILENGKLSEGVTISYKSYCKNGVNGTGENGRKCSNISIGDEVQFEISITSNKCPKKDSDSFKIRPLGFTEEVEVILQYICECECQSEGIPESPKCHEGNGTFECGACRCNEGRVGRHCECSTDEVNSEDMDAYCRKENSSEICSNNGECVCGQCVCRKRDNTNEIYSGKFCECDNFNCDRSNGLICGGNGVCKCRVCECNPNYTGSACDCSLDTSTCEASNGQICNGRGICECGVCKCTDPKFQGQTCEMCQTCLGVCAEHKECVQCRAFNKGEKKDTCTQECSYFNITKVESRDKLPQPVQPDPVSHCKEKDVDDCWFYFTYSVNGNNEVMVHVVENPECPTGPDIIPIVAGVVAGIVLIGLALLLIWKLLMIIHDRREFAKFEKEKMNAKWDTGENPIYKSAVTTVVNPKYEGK

Row | SMILES | melting point [°C] | IC50 (α4β1 integrin; Table 3, 30 minutes at 37° C.) [nM] | further results
1 | CCCCN(C(=O)N[C@@H](CC(=O)O)c1ccc2c(c1)OCO2)C1CC(=O)N(Cc2ccccc2)C1=O (stereo partly drawn) [(3S)-3-(1,3-benzodioxol-5-yl)-3-[({butyl[2,5-dioxo-1-(phenylmethyl)tetrahydro-1H-pyrrol-3-yl]amino}carbonyl)amino]propanoic acid] | 80 to 85 | – | IC50 (α4β1 integrin; Table 4, 30 minutes at 37° C.): 70000 nM
2 | Cc1ccc([C@H](CC(=O)O)NC(=O)Nc2c(O)ccn(Cc3ccccc3Cl)c2=O)cc1 [(3S)-3-{[({1-[(2-chlorophenyl)methyl]-4-hydroxy-2-oxo-1,2-dihydro-3-pyridinyl}amino)carbonyl]amino}-3-(4-methylphenyl)propanoic acid] | 113 to 115 | 10 | –
3 | CCNC(=O)N(CC)C(=O)Nc1ccn(Cc2ccccc2Cl)c(=O)c1NC(=O)N[C@@H](CC(=O)O)c1ccc(C)cc1 [(3S)-3-{[({1-[(2-chlorophenyl)methyl]-4-[({ethyl[(ethylamino)carbonyl]amino}carbonyl)amino]-2-oxo-1,2-dihydro-3-pyridinyl}amino)carbonyl]amino}-3-(4-methylphenyl)propanoic acid] | 128 to 130 | 2 | –
4 | Cc1ccc([C@H](CC(=O)O)NC(=O)Nc2c(O)c3ccccc3n(Cc3ccccc3Cl)c2=O)cc1 [(3S)-3-{[({1-[(2-chlorophenyl)methyl]-4-hydroxy-2-oxo-1,2-dihydro-3-quinolinyl}amino)carbonyl]amino}-3-(4-methylphenyl)propanoic acid] | 134 to 136 | 8 | –
5 | Cc1ccc([C@H](CC(=O)O)NC(=O)Nc2c(OCc3ccccc3)cc(C)n(Cc3ccccc3)c2=O)cc1 [(3S)-3-{[({6-methyl-2-oxo-1-(phenylmethyl)-4-[(phenylmethyl)oxy]-1,2-dihydro-3-pyridinyl}amino)carbonyl]amino}-3-(4-methylphenyl)propanoic acid] | 124 to 126 | 5 | –
6 | O=C(O)C[C@@H](Cc1cccc(C(F)(F)F)c1)NC(=O)Nc1c(O)ccn(Cc2ccccc2Cl)c1=O | – | – | IC50 (α4β1 integrin; [1]): 350 nM
7 | Cc1ccccc1[C@H](CC(=O)O)NC(=O)Nc1c(O)c(C)cn(Cc2ccccc2Cl)c1=O | – | – | IC50 (α4β1 integrin; Table 7, dose required to give 50% inhibition): 267 nM
8 | Cc1ccc([C@H](CC(=O)O)NC(=O)Nc2cccn(Cc3cccc(C(C)(C)C)c3O)c2=O)cc1 | – | – | IC50 (α4β1 integrin; [1]): 4000 nM
9 | O=C(O)C[C@H](NC(=O)Nc1c(O)ccn(Cc2ccccc2Cl)c1=O)c1ccc2c(c1)OCO2 | – | 20 | –
